From patent US6046231A, “Use of 4'-bromoflavone in a cancer chemopreventative composition and method” (The Board of Trustees of the University of Illinois, priority 1999, dated 2000)

What was measured:
H4IIE rat hepatoma cells = assay: Toxicity in H4IIE rat hepatoma cells; format: cell-based
cytochrome P4501A1 = assay: Effect on DMBA-induced cytochrome P4501A1 activity in rat tissues; format: in vivo, Sprague Dawley rat
Procedure: At 43 days of age, Sprague Dawley rats were placed on various experimental diets (Table 1) for 1 week prior to administration of a single (i.g.) dose of DMBA (15 mg). Animals then were weighed and sacrificed by CO2 asphyxiation. Tissues (livers and mammary glands) were collected, rinsed with saline, frozen in liquid nitrogen, and stored at -80° C. until analysis. Individual tissues were homogenized in 0.05 M Tris-HCl buffer (pH 7.5) containing 0.25 M sucrose. Cytosolic and microsomal fractions were obtained through differential centrifugation. Dicumarol-sensitive QR activity was measured as described above using 50 μl of suitably diluted cytosol supernatants (in duplicate). Cytochrome P4501A1-mediated EROD activities were determined as described previously in R. Poul et al. Anal. Biochem., 107, pp. 265-275 (1980) and S. Sharma et al., Cancer Res., 54, pp. 5848-5844 (1994), with slight modifications using suitably diluted microsomal protein. Enzyme activities were expressed as nmol/mg protein/min. Protein content was determined using Bradford reagent with BSA as standard, and data were presented as mean ±SE and analyzed using Student's t test (n=5).

[1] = tested on: Salmonella typhimurium strain TM677; assay: Antimutagenic assay, DMBA-induced mutagenesis; format: cell-based; conditions: S. typhimurium TM677; listed as 4'-BF
Procedure: A dose and time dependent induction of two major detoxification isoforms of GST (α form and μ form) mediated by 4'-BF has been studied in H4IIE rat hepatoma cells. In order to determine a possible mechanism of induction, the QR mRNA expression was tested using a RT-PCR technique and the induction patterns using HepG2 cells transfected with QR-chloramphenical acetyltransferase plasmid constructs containing various portions of 5'-region of the QR gene were analyzed. The antimutagenic activity of 4'-BF was tested in an antimutagenic assay against DMBA-induced mutagenesis with Salmonella typhimurium strain TM677. The chemopreventive efficacy of 4'-BF also was evaluated in a DMBA-induced mammary tumor carcinogenesis model in Sprague Dawley rats.

glutathione (GSH) level = assay: Glutathione (GSH) level in rat tissues after dietary administration; format: in vivo, Sprague Dawley rat
Procedure: Analysis of Quinone Reductase Activity and Glutathione Level in Rat Tissues. Spraque Dawley rats (n=10) at 43 days of age were placed on an appropriate experimental diet (5000, 2500, 1250, 625, and 312.5 mg/kg diet of 4'-BF) for three weeks. After three weeks, animals were sacrificed by carbon dioxide (CO2) asphyxiation. The livers, mammary glands, colons, stomachs, and lungs were collected, rinsed with saline, and frozen in liquid nitrogen and stored at -80° C. until enzyme activities were determined. Individual tissues (except mammary glands) were homogenized in 0.25 M sucrose and centrifuged at 15,000×g for 30 min at 4° C. The supernatant fluids were collected, 20% volume of 0.1 M CaCl2 in 0.25 M sucrose were added. After incubation at 0° C. for 30 min and further centrifuging at 15,000×g for 30 min at 4° C., a clear cytosolic fraction was used for enzyme assay. Mammary glands of each animal were pooled, homogenized in 1 ml ice-cold 0.1 M phosphate buffer pH 6.5 and centrifuged (15,000×g, 30 min at 4° C.), a clear supernatant suitable for enzyme assay resulted. Dicumarol-sensitive QR activity was measured in duplicate in 50 μl of suitable dilution of the tissue supernatant as described for the cellular system. GSH levels were assayed in duplicate using 96-well plates. […] The plates were shaken for 5-10 min and the extent of 2-nitro-5-thiobenzoic acid formation was monitored at 405 nm. A GSH standard curve was used to calculate the GSH content. GSH levels were expressed as nmol/mg protein.
Induction of Quinone Reductase Activity and Glutathione Level in Rat Tissues. Based on the results in cell cultures, 4'-BF was further evaluated for its inducing potency in rat liver, mammary gland, colon, stomach, and lung. […] The concentration of 4'-BF for maximum induction of GSH was about 1250 to about 2500 mg/kg diet, but varied for different organ sites.

GST Yb (μ class) = assay: Western blot of GST Yb (μ-type) expression in H4IIE cells; format: cell-based, rat; conditions: for GST Yb (μ) induction: H4IIE cells
Procedure: Western Blot Analysis Glutathione S-transferase Expression. Cultured H4IIE rat hepatoma cells were treated with test agent with various concentrations or various time points. […] Cells were harvested using SDS lysis buffer (20 mM Tris-Cl, pH 6.8, containing 0.4% SDS (w/v), 4% glycerol, 0.24 M β-mercaptoethanol, and 0.5% bromphenol) and the lysates were boiled for 5 minutes, then stored at -20° C. An aliquot of lysate was used for protein determination using a bicichoninic acid protein assay kit with BSA as a standard. Equivalent amounts of protein were electrophoresed by SDS-PAGE on precast 12.5% Tris-glycine acrylamide gels (Novex, San Diego, Calif.), then transferred to polyvinylidene difluoride (PDVF) membranes. Nonspecific binding sites were blocked with 10% nonfat dry milk and blotting was performed with goat polyclonal antirat GSTYa (α class) IgG or antirat, GSTYb (μ class) IgG and analyzed by alkaline phosphatase-conjugated antigoat IgG secondary antibody (Oxford Biomed Research, Inc.) and quantified using an AP 20 Alkaline Phosphatase Kit detection system (Oxford Biomed Research, Inc.).
Induction of Expression of Glutathione S-transferase Ya (α-type) and Yb (μ-type) in Cell Cultures. […] To date, the superfamily of mammalian cytosolic GST isozymes has been defined genetically to consist of four classes; α, μ, π, and θ, which differ in tissue-specificexpression and distribution, as well as substrate specificity. […] Cultured H4IIE cells were treated either with 10 μM of 4'-BF (FIG. 7B) or sulforaphane for 0, 2, 4, 8, 16, 24, and 48 hours for a time-dependent study, or with 0.16, 0.8, 4, 10, 20, and 50 μM of 4'-BF (FIG. 7A) or sulforaphane for 24 hr for a dose-dependent study (FIG. 7A). The expressions of two major detoxification isoforms of GSTs (GST Ya: α-type, and GST Yb: μ-type) mediated by 4'-BF or sulforaphane were investigated in H4EII rat hepatoma cells using Western blotting technique.

glutathione (GSH) = assay: Induction of glutathione (GSH) in mouse liver and mammary glands (Table 3); format: in vivo
quinone reductase (QR) = assay: Induction of quinone reductase (QR) in mouse liver and mammary glands (Table 3); format: in vivo

Compound: O=c1cc(-c2ccc(Br)cc2)oc2ccccc12 [4'-Bromoflavone]
- toxicity in H4IIE cells (H4IIE rat hepatoma cells): no observed toxicity
- cytochrome P4501A1 activity vs control (basal diet) (cytochrome P4501A1; liver and mammary gland, each treatment regimen): significantly induced
- DMBA-induced cytochrome P4501A1 activity (cytochrome P4501A1; liver or mammary gland, in addition to DMBA): did not significantly alter
- inhibition of DMBA-induced mutagenesis [1]: strongly inhibited
- GSH level increase, colon (glutathione (GSH) level; colon, dietary): 1.40-1.72 fold
- glutathione levels in rat tissues (glutathione (GSH) level; liver, mammary gland, colon, stomach, lung, short-term dietary, P<0.0001): significantly increased
- GSH level increase, liver (glutathione (GSH) level; liver, dietary): 1.62-1.83 fold
- GSH level increase, lung (glutathione (GSH) level; lung, dietary): 1.09-1.42 fold
- GSH level increase, mammary gland (glutathione (GSH) level; mammary gland, dietary): 1.01-1.28 fold
- GSH level increase, stomach (glutathione (GSH) level; stomach, dietary): 1.16-1.17 fold
- maximum induction time, GST Yb (GST Yb (μ class); 10 μM, 0-48 h): 16 to 24 h
- maximum induction concentration, GST Yb (GST Yb (μ class); 0.16-50 μM, 24 h): 10 to 20 µM
- GST Yb (μ) induction (GST Yb (μ class)): effectively induced
- GST Yb (μ) induction (GST Yb (μ class); listed as 4'-BF): induced by 4'-BF in a time, dose-dependent manner
- GSH (Treated/Control), Liver (glutathione (GSH); liver): 2.11
- GSH (Treated/Control), Mammary Gland (glutathione (GSH); mammary gland): 1.77
- QR (Treated/Control), Liver (quinone reductase (QR); liver): 5.27
- QR (Treated/Control), Mammary Gland (quinone reductase (QR); mammary gland): 2.66
